In PubChem BioAssay AID1918943 (Molecular Pharmacology Branch, DTP, NCI, 2023) one finds viability, T/C and IC50 data, which are given here for six compounds.

Where “and” joins values, the source holds several entries; their conditions need not be identical. Equal entries are not always repeated.

For this assay, the system named is 855422-203-R-J1-PDC complex spheroid viability. The assay is described as follows: Anticancer human tumor 855422-203-R-J1-PDC patient-derived bladder carcinoma cell line growth inhibition. The following applies: for viability, T/C: stronger effect = lower value. The text has this: Multicellular complex tumor spheroid response to LSD1 Inhibitor Iadademstat in combination with a variety of drugs and investigational agents in selected tumor cell lines
The current study was undertaken to assess response to LSD1 inhibitors in combination with standard-of-care drugs and investigational agents in solid tumor complex spheroid models as well as in the K-562 leukemia. Complex spheroids include a stromal component modeled by human endothelial cells (HUVEC) and fibroblasts modeled by human mesenchymal stem cells (MSCs). The concentration ranges selected for each drug and investigational agent were based upon clinically achievable concentrations if the clinical Cmax of the agent was known.
Compounds. The drugs and investigational agents used in this study are listed on Table 1. All of the agents used, including staurosporine (NSC755774) and gemcitabine (NSC613327), were obtained from the Developmental Therapeutics Program, NCI. FDA-approved anticancer drugs are available from the NCI at http://dtp.nci.nih.gov/branches/dscb/oncology_drugset_explanation.html. Drugs and investigational agents were >95% pure by proton nuclear magnetic resonance (NMR) and liquid chromatography/mass spectrometry (LC/MS). Stock solutions were prepared at 400x in DMSO, stored at -70 degrees C, and diluted in fresh medium prior to their use. The final concentration of DMSO in cell culture wells never exceeded 0.25% (v/v). The FDA-approved anticancer drug set is available from the Developmental Therapeutics Program at https://dtp.cancer.gov/organization/dscb/obtaining/available_plates.htm. All drugs and investigational agents were tested over a range starting from a high concentration at or near the clinical Cmax and decreasing in half-log increments. If the clinical Cmax for an agent had not been determined, the highest concentration tested was 10 microM.
Cell Lines. The patient-derived cancer cell (PDC) lines: 292921-168-R-J2-PDC, K24384-001-R-PDC, and 521955-158-R2-J5-PDC pancreatic carcinomas, 556581-035-R-J1 ovarian carcinoma, 324938-238-R-J1-PDC, 855422-203-R-J1-PDC and 883617-216-R-J1-PDC urothelial bladder carcinomas, 743489-274-T-PDC renal cell carcinoma, 138582-R-J1 Merkel cell tumor, K60290-347-R-J1 and K57222-313-R-J1-PDC glioblastomas, 653999-131-R-J2-PDC, LG0703-F948-PDC, and 349418-098-R-PDC non-small cell lung carcinomas, 885512-296-R-J2-PDC, 171881-019-R-J1-PDC breast carcinomas and 186277-243-T-J2-PDC and 233499-124-R-J2-PDC colon carcinomas were obtained from the NCI Patient-Derived Models Repository (PDMR, https://pdmr.cancer.gov). The established cell lines NCI/ADR-RES (RRID:CVCL_14520 and OVCAR-5 (RRID:CVCL_1628) ovarian carcinomas, 786-O (RRID:CVCL_1051) and A498 (RRID:CVCL_A498) renal cell carcinoma, NCI-H211 (ATCC, cat. CRL-5824; RRID:CVCL_1529), NCI-H196 (ATCC, cat. CRL-5823, RRID:CVCL_1509), SW 1271 (ATCC, cat. CRL-2177, RRID:CVCL_1716) and NCI-H1876 (ATCC, cat. CRL-5902, RRID:CVCL_1503) small cell lung carcinomas, MDA-MB-231 (RRID:CVCL_0062) and MDA-MB-468 (RRID:CVCL_0419)breast carcinomas (10-12). Pooled donor human umbilical vein endothelial cells (HUVEC, Lonza, cat. CC-2519) and human mesenchymal stem cells (hMSC, Lonza, cat. PT-2501) were purchased from Lonza (Walkersville, MD).
Cell Culture. All cells were maintained in an incubator at 37 degrees C and 5% CO2 with 95% humidity. The PDC lines were cultured according to standard operating procedures established by the NCI PDMR (https://pdmr.cancer.gov). Briefly all PDCs were thawed and cultured in Matrigel-coated flasks prepared with a working solution of 1X Ham's F-12 nutrient mix, without supplementation (Invitrogen, Waltham, MA, cat. 11765054), 100 U/mL penicillin-streptomycin (Invitrogen, cat. 15140122), and 2.5% Matrigel (Corning Inc., Corning, NY, cat. 354248) for the first three passages. […]

As usually defined, the viability, T/C is the result in the treated group divided by that in the control group, in per cent. What is called IC50 is the concentration that gives 50% inhibition.
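Note: drug exposure lasted 7 days starting on day 3 after seeding.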
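Throughout, for viability, T/C: luminescence viability as percent of DMSO vehicle wells = 100%.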

Turning to `CC(C)c1c(-c2ccccc2)nc2c(C#N)c[nH]n2c1=O`, the viability, T/C runs as follows: (compound 0.0316 µM) 98.3% and 101%; (compound 0.1 µM) 104% and 106%; (compound 0.316 µM) 96.1% and 107%; (compound 1 µM) 104% and 99.9%; (compound 3.16 µM) 94.5% and 99.2%; (compound 10 µM) 95.4% and 90.9%. The IC50 (curve of compound) was more than 10000 nM.

For `CC1COCCN1c1cc(C2(S(C)(=N)=O)CC2)nc(-c2ccnc3[nH]ccc23)n1` (stereo unspecified), the viability, T/C is 108% and 93.8% (compound 0.0316 µM); 99.9% and 93.1% (compound 0.1 µM); 101% and 94.4% (compound 0.316 µM); 84.9% and 85.9% (compound 1 µM); 45% and 36.6% (compound 3.16 µM); 40.7% and 35% (compound 10 µM). Besides, for the setting “curve of compound”, the half-inhibitory concentration (IC50) is 2760 nM and 2310 nM.

On to `COc1ccc([C@@H](O)c2cc(-c3ncnc4cc(N5CCOCC5)ccc34)c(F)cc2Cl)nn1`, for which the viability, T/C reads like this: (compound 0.0316 µM) 95% and 94.1%; (compound 0.1 µM) 94.7% and 94.4%; (compound 0.316 µM) 79.5% and 92.2%; (compound 1 µM) 74.3% and 85.5%; (compound 3.16 µM) 53.7% and 69.3%; (compound 10 µM) 38.6% and 39.6%. Also, under “curve of compound”, the IC50 is 4480 nM and 6680 nM.

As for `NC1CC1c1ccc(-c2cccc(O)c2)cc1` (stereo unspecified), the viability, T/C reads like this: (compound 0.1 µM) 84.2%; (compound 0.316 µM) 93.7% [middle of 25 runs]; (compound 1 µM) 90.2% [middle of 25 runs]. Under “compound alone, run of 12/07/2021”, the IC50 was more than 10000 nM.

Consider `NC1CCC(NC2CC2c2ccccc2)CC1` (stereo unspecified), for which the viability, T/C (compound 0.1 µM) is 89.9% [middle of 25 runs]; the viability, T/C (compound 0.316 µM) is 96.7% and 90.2%; the viability, T/C (compound 1 µM) was 86.6% [middle of 25 runs]; the viability, T/C (compound 3.16 µM) was 87.7% [middle of 25 runs]; the viability, T/C (compound 10 µM) was 78.7% [middle of 23 runs]. In addition, where the note is “compound alone, run of 11/29/2021”, the IC50 was more than 10000 nM.

For `Nc1ncn(C2CC(O)C(CO)O2)c(=O)n1` (stereo unspecified) + NC1CC1c1ccc(-c2cccc(O)c2)cc1, the IC50 (curve of first compound, second compound 0.1 µM) was more than 1000 nM; the IC50 (curve of first compound, second compound 0.316 µM) was more than 1000 nM; the IC50 (curve of first compound, second compound 1 µM) is more than 1000 nM; the IC50 (curve of first compound, second compound 3.16 µM) was more than 1000 nM; the IC50 (curve of first compound, second compound 10 µM) is more than 1000 nM. In addition, the viability, T/C was 104% (second compound 0.1 µM, first compound 0.00316 µM); 98.2% (second compound 0.1 µM, first compound 0.01 µM); 99.7% (second compound 0.1 µM, first compound 0.0316 µM); 106% (second compound 0.1 µM, first compound 0.1 µM); 93.5% (second compound 0.1 µM, first compound 0.316 µM); 92.4% (second compound 0.1 µM, first compound 1 µM). Moreover, the viability, T/C reads like this: (second compound 0.316 µM, first compound 0.00316 µM) 104%; (second compound 0.316 µM, first compound 0.01 µM) 95%; (second compound 0.316 µM, first compound 0.0316 µM) 96.5%; (second compound 0.316 µM, first compound 0.1 µM) 91.6%; (second compound 0.316 µM, first compound 0.316 µM) 90.3%; (second compound 0.316 µM, first compound 1 µM) 88.7%. The viability, T/C was 84.9% (second compound 1 µM, first compound 0.00316 µM); 88.6% (second compound 1 µM, first compound 0.01 µM); 89.2% (second compound 1 µM, first compound 0.0316 µM); 93.5% (second compound 1 µM, first compound 0.1 µM); 91.5% (second compound 1 µM, first compound 0.316 µM); 86.7% (second compound 1 µM, first compound 1 µM). Moreover, the viability, T/C was 91.6% (second compound 3.16 µM, first compound 0.00316 µM); 83.3% (second compound 3.16 µM, first compound 0.01 µM); 88% (second compound 3.16 µM, first compound 0.0316 µM); 86.6% (second compound 3.16 µM, first compound 0.1 µM); 89.5% (second compound 3.16 µM, first compound 0.316 µM); 84.2% (second compound 3.16 µM, first compound 1 µM). For the same compound, the viability, T/C (second compound 10 µM, first compound 0.00316 µM) was 74.7%; the viability, T/C (second compound 10 µM, first compound 0.01 µM) was 76.8%; the viability, T/C (second compound 10 µM, first compound 0.0316 µM) was 84.2%; the viability, T/C (second compound 10 µM, first compound 0.1 µM) was 82%; the viability, T/C (second compound 10 µM, first compound 0.316 µM) was 94.8%; the viability, T/C (second compound 10 µM, first compound 1 µM) is 85.2%.
